Measured values published in patent US9464064B2, “HCV helicase inhibitors and methods of use thereof” (University of Kansas, priority 2011, dated 2016).

Target: T1, HCV NS3 helicase NS3h_1b(con1) (Hepatitis C virus genotype 1b, UniProt Q9WMX2)
T1 construct: truncated C-terminally His-tagged NS3 proteins lacking the N-terminal protease, called NS3h; His-tag (C); made in house
Test: MBHA screen of NCI mechanistic set library at 20 μM (percent inhibition, compound interference)
Type: biochemical
Details: compounds at 20 μM; for Inh. (%) (Inhibition): calculated from Equation 1
Method in brief: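 Molecular beacon-based DNA unwinding assay; compounds screened at 20 μM in triplicate, with DMSO-only negative and 500 nM dT20 positive controls. Fluorescence (ex 643/em 670 nm) was read before and 30 min after adding ATP to 1 mM. Percent inhibition came from the change relative to DMSO controls; interference from pre-ATP fluorescence versus DMSO controls.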

[1] = MBHA with DNA substrate, assay interference calculated with Equation 2
[2] = assay interference calculated with Equation 2 (fluorescence vs DMSO-only controls before ATP)

T1 sequence (Q9WMX2 1192-1657): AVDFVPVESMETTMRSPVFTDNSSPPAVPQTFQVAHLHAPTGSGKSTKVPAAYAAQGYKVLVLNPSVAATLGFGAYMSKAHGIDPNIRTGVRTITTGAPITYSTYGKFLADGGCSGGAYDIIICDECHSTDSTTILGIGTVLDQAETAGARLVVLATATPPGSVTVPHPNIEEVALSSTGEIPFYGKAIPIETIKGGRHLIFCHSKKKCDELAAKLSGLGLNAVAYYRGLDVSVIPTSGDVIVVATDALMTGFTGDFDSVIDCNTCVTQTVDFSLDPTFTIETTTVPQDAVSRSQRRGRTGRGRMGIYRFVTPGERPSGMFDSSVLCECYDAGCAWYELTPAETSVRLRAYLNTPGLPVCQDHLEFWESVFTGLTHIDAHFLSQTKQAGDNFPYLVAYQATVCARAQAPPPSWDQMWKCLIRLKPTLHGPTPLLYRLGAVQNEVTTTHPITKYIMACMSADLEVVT

Row | SMILES | Int.* (Ratio) (Interference) [1] | Inh. (%) (Inhibition) (MBHA with DNA substrate) | Inh. (%) (Inhibition) (MBHA with a DNA substrate) | Int.* (Ratio) (Interference) [2] | Inh. (%) (Inhibition) (MBHA with DNA substrate, 20 µM)
1 | C[C@@H]1C[C@H]2OC(=O)[C@@]3(C)CCC[C@@](C)([C@@H]23)[C@@]1(O)CCc1ccoc1 [Compound 36693] | 0.76 | −8.8 |  |  | 
2 | O=C(C=C1SCCS1)/C=C\c1ccc(Cl)cc1 [Compound 648320] |  |  | −32.6 | 1.08 | 
3 | COc1ccc2c(c1)C=C([N+](=O)[O-])C(C1OC(C)(C)OC1C1COC(C)(C)O1)O2 (centres unmarked) [Compound 618261] |  |  | −6.4 | 0.95 | 
4 | O=C1C=C2C=CC3CC2(O1)C1CCCCN31 (centres unmarked) [Compound 107415] | 0.97 | −15.2 |  |  | 
5 | COc1ccc(C(=O)/C(Br)=C\C(=O)O)cc1 [Compound 104801] | 1.00 | −9.5 |  |  | 
6 | COc1cccc2c1C(=O)c1c(O)c3c(c(O)c1C2=O)C[C@@](O)(C(C)=O)C[C@@H]3O[C@H]1C[C@H](N(Cc2ccccc2)Cc2ccccc2)[C@H](O)[C@H](C)O1.Cl [Compound 268242] | 0.88 | 30.6 |  |  | 
7 | COC(=O)NC1C(C)OC(OC2C/C=C(\C)C3C=C[C@H]4C(OC5CC(OC6CCC(OC7CC(O)C(OC8CCC(O)C(C)O8)C(C)O7)C(C)O6)C(OC(C)=O)C(C)O5)C(C)CC(C)[C@@H]4[C@@]3(C)C([O-])=C3C(=O)OC4(CC(C=O)=CC(O)[C@@H]4/C=C\2C)C3=O)CC1(C)[N+](=O)[O-].[Na+] (some centres unmarked) [Compound 333856] |  |  | −5.2 | 0.95 | 
8 | CC[C@@]1(O)C[C@H](O[C@H]2C[C@H](N(C)C)[C@H](O[C@H]3C[C@H](O)[C@H](O[C@H]4C[C@H](O)[C@H](O)[C@H](C)O4)[C@H](C)O3)[C@H](C)O2)c2c(cc3c(c2O)C(=O)c2c(O)ccc(O)c2C3=O)[C@H]1C(=O)OC [Compound 265211] |  |  | 8.9 | 0.82 | 
9 | CCCCCCCCCCNCCSSCc1ccc(Cl)cc1.Cl [Compound 624206] | 0.81 | 0.1 |  |  | 
10 | NC(=O)NO [Compound 32065] | 1.01 | 3.7 |  |  | 
11 | C[C@@H]1CC[C@H]2C(C)(C)[C@H]3C[C@@]12CC[C@@]3(C)O [Compound 403883] |  |  | −4.0 | 0.93 | 
12 | CO[C@@H]1[C@H](O)C[C@@H](O[C@@H]2C[C@H](Oc3cc4cc5c(c(O)c4c(O)c3C)C(=O)[C@@H](O[C@H]3C[C@@H](O[C@H]4C[C@@H](O[C@H]6C[C@](C)(O)[C@@H](OC(C)=O)[C@H](C)O6)[C@H](O)[C@@H](C)O4)[C@H](O)[C@@H](C)O3)[C@H]([C@H](OC)C(=O)[C@@H](O)[C@@H](C)O)C5)O[C@H](C)[C@@H]2OC(C)=O)O[C@@H]1C [Compound 58514] | 1.04 | 54.9 |  |  | 
13 | COc1ccc(CCN(C)CCCC(C#N)(c2ccc(OC)c(OC)c2)C(C)C)cc1OC.Cl (centres unmarked) [Compound 657799] | 0.98 | 5.8 |  |  | 
14 | Cc1cc2c(c3oc(C4(C)OC4C4OC4C)cc(=O)c13)C(=O)c1c(O)c(C3CC(C)(N(C)C)C(O)C(C)O3)cc(C3CC(N(C)C)C(O)C(C)O3)c1C2=O (centres unmarked) [Compound 70929] | 0.20 | 32.1 |  |  | 
15 | Nc1nc2c(ncn2[C@@H]2O[C@H](CO)[C@@H](O)[C@H]2O)c(=O)[nH]1 [Compound 19994] |  |  | 10.4 | 1.05 | 
16 | COc1cccc2c1cc([N+](=O)[O-])c1c(C(=O)O)cc3c(c12)OCO3 [Compound 11926] | 1.14 | −12.8 |  |  | 
17 | COc1cc(C(C)c2cc3c(cc2OCCO)OCO3)cc(OC)c1OC (centres unmarked) [Compound 352876] |  |  | −19.4 | 1.08 | 
18 | COC1CC(CC2CCC(C)C(C(C)C(=O)O)O2)OC2(OC(C)(C3CCC(C)(C4OC(C5OC(O)(CO)C(C)CC5C)CC4C)O3)CC2C)C1C (centres unmarked) [Compound 292567] | 0.85 | −11.3 |  |  | 
19 | OC(CBr)C(O)C(O)C(O)CBr (centres unmarked) [Compound 616232] | 1.02 | −0.6 |  |  | 
20 | CO[C@@H](/C(C)=C/C=C/C(C)=C/c1coc(C)n1)[C@@H](C)[C@@H]1C[C@H](O)[C@@]2(C)O[C@@H]2/C=C/[C@@H](C)[C@H]2C[C@H](CC(=O)O2)C[C@@H]2O[C@H]2C(=O)O1 [Compound 332598] | 0.98 | −11.7 |  |  | 
21 | O=[N+]([O-])c1cc(C(F)(F)F)cc2n[se]nc12 [Compound 627371] | 0.92 | −10.1 |  |  | 
22 | CC1=C[C@H]2O[C@@H]3[C@H](O)[C@@H](O)[C@@](C)([C@@]2(CO)CC1)[C@]31CO1 [Compound 269142] |  |  | −19.6 | 1.07 | 
23 | C=C(CN(C)C)C(=O)c1ccccc1Cl.Cl [Compound 382007] | 0.85 | 22.9 |  |  | 
24 | COc1ccc(S(=O)(=O)N/N=C/C(=O)O)cc1 [Compound 267213] | 1.05 | 2.9 |  |  | 
25 | [Mo] [Compound 622116] | 0.97 |  |  |  | 3.5
26 | CCOC(=O)CCc1c(C)c2c(O)cc(O)cc2oc1=O [Compound 622616] |  |  | −6.5 | 0.95 | 
27 | CC(/C=C/C(O)=C1/C(=O)CNC1=O)=C\[C@@H](C)[C@H]1O[C@]2(C)O[C@@H](C(=O)[C@@H]3O[C@@]32C)[C@@H]1C [Compound 107067] |  |  | −6.0 | 0.90 | 
28 | CC12CC(Br)(Br)C(=O)C3C1CCCC32 [Compound 624358] |  |  | −4.4 | 1.05 | 
29 | CCCC(=O)[O-].[Na+] [Compound 174280] | 0.90 | 1.1 |  |  | 

Next, values leading:

Row | Int.* (Ratio) (Interference) [1] | Inh. (%) (Inhibition) (MBHA with DNA substrate) | Inh. (%) (Inhibition) (MBHA with a DNA substrate) | Int.* (Ratio) (Interference) [2] | Inh. (%) (Inhibition) (MBHA with DNA substrate, 20 µM) | SMILES
30 | 0.66 | 61.5 |  |  |  | CCN(CC)c1ccc2cc3ccc(=[N+](CC)CC)cc-3oc2c1.[Cl-] [Compound 44690]
31 | 0.94 | 13.2 |  |  |  | COc1cc(NC(C)CCCN)c2ncccc2c1.O=P(O)(O)O.O=P(O)(O)O (centres unmarked) [Compound 149765]
32 |  |  | −7.0 | 1.09 |  | CN(C)c1cccc(/C=C(\C#N)c2ccccc2)c1 [Compound 667251]
33 |  |  | −39.7 | 0.92 |  | Cc1ccccc1NC(=O)C(=O)C(C(=O)c1ccccc1F)C1OC(=O)c2ccccc21 (centres unmarked) [Compound 641228]
34 | 0.93 | 13.2 |  |  |  | CN1CCN(CCCN2c3ccccc3Sc3ccc(C(F)(F)F)cc32)CC1 [Compound 46061]
35 | 0.98 | 5.1 |  |  |  | N#CC1=C(N)Oc2c(ccc3cccnc23)C1c1ccccc1 (centres unmarked) [Compound 631583]
36 | 0.98 | −0.7 |  |  |  | Cc1ccc2c(c1)C1(C)OC(C=CC1=O)O2 (centres unmarked) [Compound 359892]
37 | 1.25 | −8.9 |  |  |  | O=S1(=O)CCN(c2ccccc2CC(c2c[nH]c3ccccc23)c2c[nH]c3ccccc23)CC1 [Compound 35949]
38 |  |  | −22.5 | 0.98 |  | N[C@@H](CSC(c1ccccc1)(c1ccccc1)c1ccccc1)C(=O)O [Compound 83265]
39 | 1.04 | −1.3 |  |  |  | CCOC(=O)/N=C(\N)SCc1ccccc1.Cl [Compound 622684]
40 | 1.02 | −18.3 |  |  |  | COc1ccc(C2C(C)C(=O)C(C)C(c3ccc(OC)cc3)N2N=O)cc1 (centres unmarked) [Compound 626734]
41 | 0.91 | 17.7 |  |  |  | Cc1cc(=O)[nH]c(NN2C(Cl)C(=O)C2c2cccc(Cl)c2)n1 (centres unmarked) [Compound 653012]
42 | 0.87 | 18.3 |  |  |  | OCCNCCN1CCN(CCCN2c3ccccc3Sc3ccc(C(F)(F)F)cc32)CC1 [Compound 169676]
43 |  |  | −20.4 | 0.96 |  | CC[C@@]1(O)C(=O)OCc2c1cc1n(c2=O)Cc2cc3c(N)cccc3nc2-1 [Compound 629971]
44 | 0.98 | −7.4 |  |  |  | COc1c2c(c(OC)c3c1c(=O)c1ccccc1n3C)OCO2 [Compound 34757]
45 |  |  | −5.2 | 0.93 |  | C=CC(=O)N1C/C(=C\c2ccc(Cl)cc2)C(=O)/C(=C/c2ccc(Cl)cc2)C1 [Compound 687849]
46 |  |  | 10.9 | 1.09 |  | N#CC(=C1C=CC(=NO)C=C1)c1ccc(Cl)cc1 [Compound 405158]
47 | 0.98 | −2.8 |  |  |  | CC1=NN(C(=O)c2ccncc2)C(=O)C1N=Nc1ccc(F)cc1 (centres unmarked) [Compound 621094]
48 | 0.89 | 15.9 |  |  |  | CC(=O)Nc1ccc(-c2nc3ccccc3s2)cc1 [Compound 33006]
49 |  |  | −22.3 | 0.87 |  | O=C(OCC12CC3CC(CC(C3)C1)C2)c1ccc(NCc2cc(O)ccc2O)cc1 [Compound 689857]
